Measured values: US20120283175A1, “ANTIBACTERIAL COMPOSITIONS” (Achaogen, Inc., priority 2009, published 2012)

Test system: Klebsiella pneumoniae (ATCC 43816)
Type: in vivo
Method: Vancomycin and LpxCi-5 were dissolved in 30% HPβCD (2-hydroxypropyl-β-cyclodextrin). Test substances were each administered subcutaneously (SC) singly or in combination to test animals at 2 hours and 14 hours after bacterial inoculation then bid daily for a total of 1, 2, 3 or 7 day(s). The dosing volume was 5 mL/kg.
Groups of 5 or 10 male specific-pathogen-free CD-1 (Crl.) mice weighing 24±2 g were used. Animals were immunosuppressed by two or three intraperitoneal injections of cyclophosphamide, the first at 150 mg/kg 4 days before infection (day −4) and the second or third at 100 mg/kg 1 day before or 3 days after infection (day −1 or +3). On day 0, animals were inoculated intramuscularly (0.1 mL/thigh) into the right thigh with a specific number (1.35×10^7 CFU/mouse) of Klebsiella pneumoniae (ATCC 43816). Vehicle and test substances (singly or in combination) were each administered subcutaneously 2 hours and 14 hours after inoculation then bid for a total of 1, 2, 3 or 7 consecutive day(s). Groups at 24, 48, 72 hours and day 8 hours after treatment as the designated time of harvest, muscle of the right thigh was harvested from each of the survival test animals. An additional group with no treatment, at 2 hours after inoculation, the muscle of the right thigh was harvested and viable CFU on agar plates with or without drug were quantified by standard methods. Animals in groups designated for Day 8 harvest are 10 mice and daily tally of survivors were kept until harvest and recorded. A non-infected group was just treated with LpxCi-5 and kept out to Day 8 and then harvested. The removed muscle tissues were then homogenized in 3˜4 mL of PBS, pH 7.4, with a ceramic mortar. Homogenates of 0.1 mL were used for serial 10-fold dilutions and plated on Muller-Hinton Broth in 1.5% Bacto agar and plated in parallel with drug plates for CFU determination. The original inoculum was adjusted to 2×10^8 CFU/0.1 mL and then plated onto the 3 different drug plates of LpxCi-5 for CFU count.
The immunity of animals treated with vehicle or vancomycin alone was suppressed by two intraperitoneal injections of cyclophosphamide, the first was at 150 mg/kg 4 days before infection (day −4) and the second was at 100 mg/kg 1 day before infection (day −1). On day 0, test compound and vehicle were each administered subcutaneously at 2 and 14 hrs after animals were inoculated intramuscularly (0.1 mL/thigh) with 1.35×10^7 CFU/mouse of Klebsiella pneumoniae (ATCC 43816).
(§1) The immunity of animals treated with LpxCi-5 alone was suppressed by two or three intraperitoneal injections of cyclophosphamide, the first was at 150 mg/kg 4 days before infection (day −4); the second and the third was at 100 mg/kg 1 day before and three days after infection (day −1 and day +3). On day 0, test compound were each administered subcutaneously bid at 2 and 14 hrs after animals were inoculated intramuscularly (0.1 mL/thigh) with 1.35×10^7 CFU/mouse of Klebsiella pneumoniae (ATCC 43816) for one, two, three or seven consecutive days. At 24, 48, 72 hours or at day 8 after treatment, muscle of the right thigh was harvested from each of the test animals for CFU determination in normal and drug plates.
as §1, with “both vancomycin and the LpxC inhibitor, LpxCi-5,” for “LpxCi-5 alone”, “compounds in combination” for “compound”, “days.” for “days. At 24, 48, 72 hours or at day 8 after treatment, muscle of the right thigh was harvested from each of the test animals for CFU determination in normal and drug plates.”

## CN[C@H](CC(C)C)C(=O)N[C@H]1C(=O)N[C@@H](CC(N)=O)C(=O)N[C@H]2C(=O)N[C@H]3C(=O)N[C@H](C(=O)N[C@H](C(=O)O)c4cc(O)cc(O)c4-c4cc3ccc4O)[C@H](O)c3ccc(c(Cl)c3)Oc3cc2cc(c3O[C@@H]2O[C@H](CO)[C@@H](O)[C@H](O)[C@H]2O[C@H]2C[C@](C)(N)[C@H](O)[C@H](C)O2)Oc2ccc(cc2Cl)[C@H]1O [Vancomycin, vancomycin]
24 hr, normal plates, SC bid × 1, Vancomycin 25 mg/kg, LpxC-i 35 mg/kg
  Mean CFU/g thigh muscle (SEM): all animals died
Vancomycin only treatment group
  animals for which the inoculum was lethal at 24 hours: 100%
Vancomycin alone, SC at 2 and 14 hrs after inoculation
  time within which all mice died: ≤ 24 h
